For one experiment, the target named is T1, mouse EP4 (Mus musculus, UniProt P32240).
T1 construct: expressed in transfected cells; host or cells: CHO cells
As to the kind of experiment: Binding assay using expression cell of prostanoids receptor subtype: 3H-PGE2 binding inhibition, EP4. To be noted: 2.5 nM 3H-PGE2, CHO cell membrane fraction, pH 6.0, room temperature, 1 hour; read-out: Dissociation Constant Ki, EP4. How it is done:
(§1) (i) Binding assay using expression cell of prostanoids receptor subtype
(§2) The preparation of membrane fraction was carried out according to the method of Sugimoto et al. [J. Biol. Chem., 267, 6463-6466 (1992)], using expression CHO cell of the prostanoids receptor subtype (mouse EP1, EP2, EP3α, EP4).
(§3) The standard assay mixture containing membrane fraction (0.5 mg/ml), and ^3 H-PGE2 in a final volume of 200 μl was incubated at room temperature for 1 hour. The reaction was terminated by addition of 3 ml of ice-cooled buffer. The mixture was filtered through a GF/B glass filter under reduced pressure. The radioactivity associated with the filter was measured by liquid scintillation counter.
(§4) Kd and Bmax values were determined from Scatchard plots [Ann. N.Y. Acad. Sci., 51, 660 (1949)]. Non-specific binding was calculated as the binding in the presence of an excess (10 μM) of unlabeled PGE2. In the measurement of ^3 H-PGE2 binding inhibitory activity, 2.5 nM of ^3 H-PGE2 and various concentrations of the compounds of the present invention were added. The following buffer was used in all reactions.
(§5) Buffer; 10 mM potassium phosphate (pH 6.0), 1 mM EDTA, 10 mM MgCl2, 0.1 M NaCl.
(§6) The dissociation constant Ki (μM) of each compound was calculated by the following equation.

A further experiment concerns the target T2, mouse EP1 (Mus musculus, UniProt P35375).
T2 construct: expressed in transfected cells; host or cells: CHO cells
T2 sequence (P35375 1-405): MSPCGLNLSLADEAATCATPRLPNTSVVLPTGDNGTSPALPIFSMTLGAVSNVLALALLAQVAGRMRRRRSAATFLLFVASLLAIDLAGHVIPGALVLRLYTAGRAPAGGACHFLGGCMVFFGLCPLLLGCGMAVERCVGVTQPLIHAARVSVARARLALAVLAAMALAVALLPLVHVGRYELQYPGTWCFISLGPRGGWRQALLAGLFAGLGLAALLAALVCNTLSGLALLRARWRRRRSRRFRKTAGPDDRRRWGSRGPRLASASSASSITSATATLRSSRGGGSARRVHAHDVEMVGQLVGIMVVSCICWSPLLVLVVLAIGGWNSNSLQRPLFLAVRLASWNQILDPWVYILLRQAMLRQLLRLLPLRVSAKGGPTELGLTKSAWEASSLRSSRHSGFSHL
The experiment in a line: Binding assay using expression cell of prostanoids receptor subtype: 3H-PGE2 binding inhibition, EP1. To be noted: 2.5 nM 3H-PGE2, CHO cell membrane fraction, pH 6.0, room temperature, 1 hour; read-out: Dissociation Constant Ki, EP1. How it is done:
as §1, §2, §3, §4, §5, §6

The target of another experiment is T3, mouse EP3α (Mus musculus, UniProt P30557).
T3 construct: expressed in transfected cells; host or cells: CHO cells
T3 sequence (P30557 1-365): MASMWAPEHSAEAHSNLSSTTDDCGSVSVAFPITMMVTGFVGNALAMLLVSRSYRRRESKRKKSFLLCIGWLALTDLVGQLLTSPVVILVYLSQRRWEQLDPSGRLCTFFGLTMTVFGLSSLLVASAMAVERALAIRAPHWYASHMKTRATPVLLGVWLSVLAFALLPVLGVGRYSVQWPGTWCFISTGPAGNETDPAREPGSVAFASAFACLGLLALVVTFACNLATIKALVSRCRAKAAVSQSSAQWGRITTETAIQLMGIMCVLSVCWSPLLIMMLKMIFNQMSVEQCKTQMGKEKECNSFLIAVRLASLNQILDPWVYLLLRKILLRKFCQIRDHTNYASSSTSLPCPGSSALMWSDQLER
As to the kind of experiment: Binding assay using expression cell of prostanoids receptor subtype: 3H-PGE2 binding inhibition, EP3α. To be noted: 2.5 nM 3H-PGE2, CHO cell membrane fraction, pH 6.0, room temperature, 1 hour; read-out: Dissociation Constant Ki, EP3α. How it is done: as §1, §2, §3, §4, §5, §6

The next experiment deals with T4, mouse EP2 (Mus musculus, UniProt Q62053).
T4 construct: expressed in transfected cells; host or cells: CHO cells
The experiment in a line: Binding assay using expression cell of prostanoids receptor subtype: 3H-PGE2 binding inhibition, EP2. To be noted: 2.5 nM 3H-PGE2, CHO cell membrane fraction, pH 6.0, room temperature, 1 hour; read-out: Dissociation Constant Ki, EP2. How it is done: as §1, §2, §3, §4, §5, §6

Molecules are shown by their SMILES. Some results are limits rather than exact numbers.

The Ki is the dissociation constant of the complex between target and ligand, obtained from inhibition or displacement.

T4 sequence (Q62053 whole entry): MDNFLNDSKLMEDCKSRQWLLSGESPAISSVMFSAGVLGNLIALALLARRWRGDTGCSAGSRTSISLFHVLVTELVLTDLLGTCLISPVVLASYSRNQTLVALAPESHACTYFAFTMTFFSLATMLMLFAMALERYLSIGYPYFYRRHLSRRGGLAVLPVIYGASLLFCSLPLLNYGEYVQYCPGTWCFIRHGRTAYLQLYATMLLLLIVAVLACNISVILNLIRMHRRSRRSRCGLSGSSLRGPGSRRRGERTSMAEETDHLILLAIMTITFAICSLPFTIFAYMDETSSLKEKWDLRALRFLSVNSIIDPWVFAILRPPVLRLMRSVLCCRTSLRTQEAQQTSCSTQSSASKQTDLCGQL
T1 sequence (P32240 whole entry): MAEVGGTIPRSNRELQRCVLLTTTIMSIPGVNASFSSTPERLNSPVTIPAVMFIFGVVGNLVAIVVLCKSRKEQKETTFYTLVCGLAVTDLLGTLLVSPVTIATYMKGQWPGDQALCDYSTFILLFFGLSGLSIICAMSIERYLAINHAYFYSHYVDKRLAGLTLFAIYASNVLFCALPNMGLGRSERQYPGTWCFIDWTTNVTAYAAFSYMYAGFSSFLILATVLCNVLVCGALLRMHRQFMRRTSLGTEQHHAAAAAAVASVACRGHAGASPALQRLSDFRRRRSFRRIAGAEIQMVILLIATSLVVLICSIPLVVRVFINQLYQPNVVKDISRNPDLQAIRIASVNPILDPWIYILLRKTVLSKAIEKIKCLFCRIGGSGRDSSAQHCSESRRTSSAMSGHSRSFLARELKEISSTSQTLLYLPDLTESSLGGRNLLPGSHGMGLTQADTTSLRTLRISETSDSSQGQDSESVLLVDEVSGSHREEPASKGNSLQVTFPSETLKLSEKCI

Consider `CCC1([C@@H](O)C/C=C/[C@@H]2[C@@H](CCCCCCC(=O)O)[C@H](Cl)C[C@H]2O)CCC1` [Example 2, (9β,11α,16α)-9-Chloro-11,16-dihydroxy-17,17-propano-20-norprosta-13E-enoic acid], for which the Ki on mouse EP4 was 1.7 µM; on mouse EP1 it was 5.7 µM; at mouse EP3α, above 10 µM; at mouse EP2 it was 0.0081 µM.
The matching figures for `CCC1([C@@H](O)CCC[C@@H]2[C@@H](CCCCCCC(=O)O)[C@H](Cl)C[C@H]2O)CCC1` [Example 3(a), (9β,11α,16α)-9-Chloro-11,16-dihydroxy-17,17-propano-20-norprostanoic acid]: above 10 µM, 3.5 µM, above 10 µM and 0.017 µM.
Taken in the same sequence, the figures for `CCC1([C@@H](O)C/C=C/[C@@H]2[C@@H](CCCCCCC(=O)O)[C@H](F)C[C@H]2O)CCC1` [Example 2(a), (9β,11α,16α)-9-Fluoro-11,16-dihydroxy-17,17-propano-20-norprosta-13E-enoic acid] were above 10 µM, above 10 µM, above 10 µM and 0.066 µM.

The record behind these values is patent US6235780A, “ω-cycloalkyl-prostaglandin E1 derivatives” (Ono Pharmaceutical Co., Ltd., priority 1998, dated 2001).
